The record followed here is US4927820A, “Fused heterocyclic derivatives of 1,2,3,4-tetrahydroacridine” (priority 1988, dated 1990).

Usually IC50 stands for the midpoint of a concentration-inhibition curve. High values mean weaker potency in that assay, low ones greater potency in that assay.

In one assay the target is acetylcholinesterase (Homo sapiens, UniProt P22303). The assay can be described thus: Cholinesterase inhibition assay (photometric method of Ellman et al.). The assay is classed as biochemical. A general note: In Ellman's method for cholinesterases, released thiocholine reacts with DTNB.
Chain of acetylcholinesterase (P22303 32-614): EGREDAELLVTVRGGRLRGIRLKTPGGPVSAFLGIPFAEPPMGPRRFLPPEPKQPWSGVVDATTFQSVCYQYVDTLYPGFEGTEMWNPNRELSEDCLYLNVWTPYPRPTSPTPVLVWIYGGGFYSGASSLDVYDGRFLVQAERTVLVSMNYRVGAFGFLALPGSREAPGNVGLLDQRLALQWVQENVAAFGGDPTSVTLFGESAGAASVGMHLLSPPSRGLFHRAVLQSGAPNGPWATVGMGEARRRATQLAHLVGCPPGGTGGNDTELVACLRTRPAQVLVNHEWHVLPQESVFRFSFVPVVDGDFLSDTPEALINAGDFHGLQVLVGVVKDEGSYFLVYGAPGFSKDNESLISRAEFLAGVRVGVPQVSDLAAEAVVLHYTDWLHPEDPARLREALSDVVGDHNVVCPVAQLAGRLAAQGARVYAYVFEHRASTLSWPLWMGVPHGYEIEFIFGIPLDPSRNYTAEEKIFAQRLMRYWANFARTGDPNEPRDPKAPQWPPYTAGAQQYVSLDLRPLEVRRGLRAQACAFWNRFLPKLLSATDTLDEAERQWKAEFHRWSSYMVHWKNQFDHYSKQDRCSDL
Assay [1] relates to scopolamine induced memory deficit in mice. The assay can be described thus: Dark Avoidance Assay (reversal of scopolamine induced memory deficit). The assay is classed as in vivo. Particulars: retest 24 hours later. The procedure: This utility can also be ascertained by determining the ability of these compounds to restore cholinergically deficient memory in the Dark Avoidance Assay. In this assay mice are tested for their ability to remember an unpleasant stimulus for a period of 24 hours. A mouse is placed in a chamber that contains a dark compartment; a strong incadescent light drives it to the dark compartment, where an electric shock is administered through metal plates on the floor. The animal is removed from the testing apparatus and tested again, 24 hours later, for the ability to remember the electric shock.
If scopolamine, an anticholinergic that is known to cause memory impairment, is administered before an animal's initial exposure to the test chamber, the animal re-enters the dark compartment shortly after being placed in the test chamber 24 hours later. This effect of scopolamine is blocked by an active test compound, resulting in a greater interval before re-entry into the dark compartment.
The results for an active compound are expressed as the percent of a group of animals in which the effect of scopolamine is blocked, as manifested by an increased interval between being placed in the test chamber and re-entering the dark compartment.

SMILES strings stand for the structures.

In turn, `Fc1ccc(C2Nc3c4c(nc5ccccc35)CCCC4O2)cc1` (stereo not shown) [2-(4-Fluorophenyl)-1,2,3a,4,5,6-hexahydro[1,3]oxazino[6,5,4-kl]acridine] displayed a half-inhibitory concentration (IC50) against acetylcholinesterase of 21 µM.

At acetylcholinesterase, `c1ccc(C2Nc3c4c(nc5ccccc35)CCCC4O2)cc1` (stereo not shown) [2-Phenyl-1,2,3a,4,5,6-hexahydro[1,3]oxazino[6,5,4-kl]acridine] registered an IC50 of 36 µM. Moreover, the “% of animals with scopolamine induced memory deficit reversal” value in assay [1] (dose 5.0 mg/kg body weight) is given as 27%.

For `CNC(=O)Oc1ccc2c(c1)[C@]1(C)CCN(C)[C@@H]1N2C` [Physostigmine, reference compound], in assay [1] (dose 0.31 mg/kg body weight, reference), the “% of animals with scopolamine induced memory deficit reversal” value amounted to 20%.
